The values below come from US11952330B2, “Antibiotic ammonium compounds and methods for the treatment of bacterial infections” (priority 2019, dated 2024).

One assay deals with S. aureus. Description: MIC by broth dilution, S. aureus. The settings on record: Staphylococcus aureus; Mueller-Hinton broth, overnight 37° C.; Table 1; read-out: MIC (μg/mL) S. aureus. It is filed as cell-based. How it is done: (§1) The antibacterial efficacy of the ammonium compounds was assessed. Minimum inhibitory concentrations (MICs) were determined by broth dilution method. Dilutions of each compound, ranging from 1 μg/mL to 256 μg/mL (final concentrations) were prepared in Mueller-Hinton broth. Compound dilutions were added to wells of a 96-well plate, with the concentration of the compound increasing 2-fold by row. Each well contained 5×10^5 CFU/ml of target bacterium in a total volume of 100 μl. Plates were incubated overnight at 37° C. The following day, plates were evaluated for a visual change in growth to determine the MIC. The concentration value corresponding to the first row that no longer had visible bacterial growth, as evaluated by turbidity in the wells, was recorded as the MIC. MIC values were representative of at least biological duplicates, each made up of technical triplicates. The antibacterial efficacy of ammonium compounds in the presence of human plasma was assessed. Minimum inhibitory concentrations (MICs) were determined by broth dilution method. Dilutions of each compound, ranging from 1 μg/mL to 256 μg/mL (final concentrations) were prepared in Mueller-Hinton broth. For the plasma containing samples, compound dilutions were made in Mueller-Hinton broth and supplemented with 5% (final %) human plasma (esterases). Compound dilutions were added to wells of a 96-well plate, with the concentration of the compound increasing 2-fold by row. Each well contained 5×10^5 CFU/mL of target bacterium in a total volume of 100 μL. Plates were incubated overnight at 37° C. The following day, plates were evaluated for a visual change in growth to determine the MIC. The concentration value corresponding to the first row that no longer had visible bacterial growth, as evaluated by turbidity in the wells, was recorded as the MIC. MIC values were representative of at least biological duplicates, each made up of technical triplicates.
A general note: In broth dilution the organism is exposed to a series of concentrations in liquid medium.

A further assay deals with A. baumannii. Description: MIC by broth dilution, A. baumannii. It is filed as cell-based. The settings on record: Acinetobacter baumannii; Mueller-Hinton broth, overnight 37° C.; Table 1; read-out: MIC (μg/mL) A. baumannii. How it is done:
as §1

The structures appear in SMILES notation.

Regarding `CCCCCCOc1ccccc1C(=O)Nc1ccc(C(=O)OCC[N+](CC)(CC)CCC)cc1.[Br-]` [Compound 66, N,N-Diethyl-N-(2-((4-(2-(hexyloxy)benzamido)benzoyl)oxy)ethyl)propan-1-aminium bromide], the MIC with S. aureus is 3 to 30 µg/mL; in the assay with A. baumannii, more than 30 µg/mL.
Taken in the same sequence, the figures for `CCCCCCOc1ccccc1C(=O)Nc1ccc(C(=O)OCC[N+](CC)(CC)CCCC)cc1.[Br-]` [Compound 67, N,N-Diethyl-N-(2-((4-(2-(hexyloxy)benzamido)benzoyl)oxy)ethyl)butan-1-aminium bromide] were 3 to 30 µg/mL and more than 30 µg/mL.
Taken in the same sequence, the figures for `CCCCCCCOc1ccccc1C(=O)Nc1ccc(C(=O)OCC[N+](CC)(CC)CCC)cc1.[Br-]` [Compound 69, N,N-Diethyl-N-(2-((4-(2-(heptyloxy)benzamido)benzoyl)oxy)ethyl)propan-1-aminium bromide] were 3 to 30 µg/mL and more than 30 µg/mL.
Taken in the same sequence, the figures for `CCCCCCCOc1ccccc1C(=O)Nc1ccc(C(=O)OCC[N+](CC)(CC)CCCC)cc1.[Br-]` [Compound 70, N,N-Diethyl-N-(2-((4-(2-(heptyloxy)benzamido)benzoyl)oxy)ethyl)butan-1-aminium bromide] were less than 3 µg/mL and 3 to 30 µg/mL.
Consider `CCCCCCCOc1ccccc1C(=O)Nc1ccc(C(=O)OCC[N+](CC)(CC)CCCCC)cc1.[Br-]` [Compound 71, N,N-Diethyl-N-(2-((4-(2-(heptyloxy)benzamido)benzoyl)oxy)ethyl)pentan-1-aminium bromide], for which the results for the MIC in the assay with S. aureus and in the assay with A. baumannii were less than 3 µg/mL and 3 to 30 µg/mL, respectively.
On to `CCCCCCCCOc1ccccc1C(=O)Nc1ccc(C(=O)NC2CC[N+](C)(CCC)CC2)cc1.[Br-]` (stereo not drawn) [Compound 72, 1-Methyl-4-(4-(2-(octyloxy)benzamido)benzamido)-1-propylpiperidin-1-ium bromide], for which the MIC was 3 to 30 µg/mL in the assay with S. aureus and more than 30 µg/mL in the assay on A. baumannii.
Taken in the same sequence, the figures for `CCCCCCCOc1ccccc1C(=O)Nc1ccc(C(=O)NC2CC[N+](C)(CCC)CC2)cc1.[Br-]` (stereo not drawn) [Compound 73, 4-(4-(2-(Heptyloxy)benzamido)benzamido)-1-methyl-1-propylpiperidin-1-ium bromide] were 3 to 30 µg/mL and more than 30 µg/mL.
Taken in the same sequence, the figures for `CCCCCCCCOc1ccccc1C(=O)Nc1ccc(C(=O)N(C)C2CC[N+](CC)(CCC)CC2)cc1.[Br-]` (stereo not drawn) [Compound 74, 1-Ethyl-4-(N-methyl-4-(2-(octyloxy)benzamido)benzamido)-1-propylpiperidin-1-ium bromide] were 3 to 30 µg/mL and more than 30 µg/mL.
Taken in the same sequence, the figures for `CCCCCCCCOc1ccccc1C(=O)Nc1ccc(C(=O)NC2CC[N+](CCC)(CCC)CC2)cc1.[Br-]` [Compound 75, 4-(4-(2-(Octyloxy)benzamido)benzamido)-1,1-dipropylpiperidin-1-ium bromide] were 3 to 30 µg/mL and more than 30 µg/mL.
Consider `CCCCCCCOc1ccccc1C(=O)Nc1ccc(C(=O)NC2CC[N+](CCC)(CCC)CC2)cc1.[Br-]` [Compound 76, 4-(4-(2-(Heptyloxy)benzamido)benzamido)-1,1-dipropylpiperidin-1-ium bromide], for which the values for the MIC with S. aureus and with A. baumannii were 3 to 30 µg/mL and more than 30 µg/mL, respectively.
Taken in the same sequence, the figures for `CCCCCCCOc1ccccc1C(=O)Nc1ccc(C(=O)NCC[N+](C)(CC)CC)cc1.[Br-]` [Compound 77, N,N-Diethyl-2-(4-(2-(heptyloxy)benzamido)benzamido)-N-methylethan-1-aminium bromide] were 3 to 30 µg/mL and more than 30 µg/mL.
Taken in the same sequence, the figures for `CCCCCCCCOc1ccccc1C(=O)Nc1ccc(S(=O)(=O)NCC[N+](C)(CC)CC)cc1.[Br-]` [Compound 78, N,N-Diethyl-N-methyl-2-((4-(2-(octyloxy)benzamido)phenyl)sulfonamido)ethan-1-aminium bromide] were 3 to 30 µg/mL and 3 to 30 µg/mL.
